Activity calls are given as the source filed them. The calls are words filed in the database; no cut-off is given here.
What was measured:
[1] = tested on: LOX; assay: Antitumor activity against human LOX cells xenografted athymic nude mouse at 0.59 mg/kg, ip administered daily for 5 days; format: functional, organism-based; parameters: dose 0.59 mg/kg
[2] = tested on: LOX; assay: Antitumor activity against human LOX cells xenografted athymic nude mouse at 0.39 mg/kg, ip administered daily for 5 days; format: functional, organism-based; parameters: dose 0.39 mg/kg
[3] = tested on: LOX; assay: Antitumor activity against human LOX cells xenografted athymic nude mouse at 6.0 mg/kg, ip administered daily for 5 days; format: functional, organism-based; parameters: dose 6 mg/kg
[4] = tested on: LOX; assay: Antitumor activity against human LOX cells xenografted athymic nude mouse at 0.26 mg/kg, ip administered daily for 5 days; format: functional, organism-based; parameters: dose 0.26 mg/kg
[5] = tested on: Mus musculus; assay: Toxicity against human LOX cells xenografted athymic nude mouse assessed as median day of death at 0.88 mg/kg, ip administered daily for 5 days; format: organism-based; parameters: dose 0.88 mg/kg, route intraperitoneal; conditions: in vivo, 120 h
[6] = tested on: Mus musculus; assay: Toxicity against human LOX cells xenografted athymic nude mouse assessed as median day of death at 3.0 mg/kg, ip administered daily for 5 days; format: organism-based; parameters: dose 3 mg/kg, route intraperitoneal; conditions: in vivo, 120 h
[7] = tested on: Mus musculus; assay: Toxicity against human LOX cells xenografted athymic nude mouse assessed as median day of death at 2.0 mg/kg, ip administered daily for 5 days; format: organism-based; parameters: dose 2 mg/kg, route intraperitoneal; conditions: in vivo, 120 h
[8] = tested on: Mus musculus; assay: Toxicity against human LOX cells xenografted athymic nude mouse assessed as median day of death at 1.33 mg/kg, ip administered daily for 5 days; format: organism-based; parameters: dose 1.33 mg/kg, route intraperitoneal; conditions: in vivo, 120 h
[9] = tested on: Mus musculus; assay: Toxicity against human LOX cells xenografted athymic nude mouse assessed as median day of death at 0.59 mg/kg, ip administered daily for 5 days; format: organism-based; parameters: dose 0.59 mg/kg, route intraperitoneal; conditions: in vivo, 120 h
[10] = tested on: Mus musculus; assay: Toxicity against human LOX cells xenografted athymic nude mouse assessed as median day of death at 0.39 mg/kg, ip administered daily for 5 days; format: organism-based; parameters: dose 0.39 mg/kg, route intraperitoneal; conditions: in vivo, 120 h
[11] = tested on: Mus musculus; assay: Toxicity against human LOX cells xenografted athymic nude mouse assessed as median day of death at 6.0 mg/kg, ip administered daily for 5 days; format: organism-based; parameters: dose 6 mg/kg, route intraperitoneal; conditions: in vivo, 120 h
[12] = tested on: Mus musculus; assay: Toxicity against human LOX cells xenografted athymic nude mouse assessed as median day of death at 0.26 mg/kg, ip administered daily for 5 days; format: organism-based; parameters: dose 0.26 mg/kg, route intraperitoneal; conditions: in vivo, 120 h
[13] = Antitumor activity against human LOX cells xenografted athymic nude mouse assessed as increase in life span at 1.33 mg/kg, ip administered daily for 5 days; format: functional; conditions: route intraperitoneal
[14] = Cytotoxicity against human NCI60 cells; format: functional
[15] = tested on: LOX; assay: Antitumor activity against human LOX cells xenografted athymic nude mouse at 0.88 mg/kg, ip administered daily for 5 days; format: functional, organism-based; parameters: dose 0.88 mg/kg
[16] = tested on: LOX; assay: Antitumor activity against human LOX cells xenografted athymic nude mouse at 3.0 mg/kg, ip administered daily for 5 days; format: functional, organism-based; parameters: dose 3 mg/kg
[17] = tested on: LOX; assay: Antitumor activity against human LOX cells xenografted athymic nude mouse at 2.0 mg/kg, ip administered daily for 5 days; format: functional, organism-based; parameters: dose 2 mg/kg
[18] = tested on: LOX; assay: Antitumor activity against human LOX cells xenografted athymic nude mouse at 1.33 mg/kg, ip administered daily for 5 days; format: functional, organism-based; parameters: dose 1.33 mg/kg
[19] = tested on: LOX; assay: Antitumor activity against human LOX cells xenografted athymic nude mouse at 0.17 mg/kg, ip administered daily for 5 days; format: functional, organism-based; parameters: dose 0.17 mg/kg
[20] = tested on: Mus musculus; assay: Toxicity against human LOX cells xenografted athymic nude mouse assessed as median day of death at 225 mg/kg, ip administered daily for 5 days; format: organism-based; parameters: dose 225 mg/kg, route intraperitoneal; conditions: in vivo, 120 h
[21] = tested on: Mus musculus; assay: Toxicity against human LOX cells xenografted athymic nude mouse assessed as median day of death at 112.5 mg/kg, ip administered daily for 5 days; format: organism-based; parameters: dose 112.5 mg/kg, route intraperitoneal; conditions: in vivo, 120 h
[22] = tested on: Mus musculus; assay: Toxicity against human LOX cells xenografted athymic nude mouse assessed as median day of death at 56.25 mg/kg, ip administered daily for 5 days; format: organism-based; parameters: dose 56.25 mg/kg, route intraperitoneal; conditions: in vivo, 120 h
[23] = tested on: Mus musculus; assay: Toxicity against human LOX cells xenografted athymic nude mouse assessed as median day of death at 28.12 mg/kg, ip administered daily for 5 days; format: organism-based; parameters: dose 28.12 mg/kg, route intraperitoneal; conditions: in vivo, 120 h
[24] = tested on: Mus musculus; assay: Toxicity against human LOX cells xenografted athymic nude mouse assessed as median day of death at 14.06 mg/kg, ip administered daily for 5 days; format: organism-based; parameters: dose 14.06 mg/kg, route intraperitoneal; conditions: in vivo, 120 h
[25] = tested on: Mus musculus; assay: Toxicity against human LOX cells xenografted athymic nude mouse assessed as median day of death at 7.03 mg/kg, ip administered daily for 5 days; format: organism-based; parameters: dose 7.03 mg/kg, route intraperitoneal; conditions: in vivo, 120 h
[26] = tested on: Mus musculus; assay: Toxicity against human LOX cells xenografted athymic nude mouse assessed as median day of death at 3.51 mg/kg, ip administered daily for 5 days; format: organism-based; parameters: dose 3.51 mg/kg, route intraperitoneal; conditions: in vivo, 120 h
[27] = tested on: Mus musculus; assay: Toxicity against human LOX cells xenografted athymic nude mouse assessed as median day of death at 1.76 mg/kg, ip administered daily for 5 days; format: organism-based; parameters: dose 1.76 mg/kg, route intraperitoneal; conditions: in vivo, 120 h
[28] = tested on: Mus musculus; assay: Toxicity against human LOX cells xenografted athymic nude mouse assessed as median day of death at 0.17 mg/kg, ip administered daily for 5 days; format: organism-based; parameters: dose 0.17 mg/kg, route intraperitoneal; conditions: in vivo, 120 h
[29] = Antitumor activity against human LOX cells xenografted athymic nude mouse assessed as increase in life span at 1.76 mg/kg, ip administered daily for 5 days; format: functional; conditions: route intraperitoneal
[30] = Antitumor activity against human LOX cells xenografted athymic nude mouse assessed as increase in life span at 0.88 mg/kg, ip administered daily for 5 days; format: functional; conditions: route intraperitoneal
[31] = Antitumor activity against human LOX cells xenografted athymic nude mouse assessed as increase in life span at 0.59 mg/kg, ip administered daily for 5 days; format: functional; conditions: route intraperitoneal
[32] = Antitumor activity against human LOX cells xenografted athymic nude mouse assessed as increase in life span at 0.17 mg/kg, ip administered daily for 5 days; format: functional; conditions: route intraperitoneal
[33] = Antitumor activity against human LOX cells xenografted athymic nude mouse assessed as increase in life span at 3.0 mg/kg, ip administered daily for 5 days; format: functional; conditions: route intraperitoneal
[34] = Antitumor activity against human LOX cells xenografted athymic nude mouse assessed as increase in life span at 2.0 mg/kg, ip administered daily for 5 days; format: functional; conditions: route intraperitoneal
[35] = tested on: LOX; assay: Antitumor activity against human LOX cells xenografted athymic nude mouse at 225 mg/kg, ip administered daily for 5 days; format: functional, organism-based; parameters: dose 225 mg/kg
[36] = tested on: LOX; assay: Antitumor activity against human LOX cells xenografted athymic nude mouse at 112.5 mg/kg, ip administered daily for 5 days; format: functional, organism-based; parameters: dose 112.5 mg/kg
[37] = tested on: LOX; assay: Antitumor activity against human LOX cells xenografted athymic nude mouse at 56.25 mg/kg, ip administered daily for 5 days; format: functional, organism-based; parameters: dose 56.25 mg/kg
[38] = tested on: LOX; assay: Antitumor activity against human LOX cells xenografted athymic nude mouse at 28.12 mg/kg, ip administered daily for 5 days; format: functional, organism-based; parameters: dose 28.12 mg/kg
[39] = tested on: LOX; assay: Antitumor activity against human LOX cells xenografted athymic nude mouse at 14.06 mg/kg, ip administered daily for 5 days; format: functional, organism-based; parameters: dose 14.06 mg/kg
[40] = tested on: LOX; assay: Antitumor activity against human LOX cells xenografted athymic nude mouse at 7.03 mg/kg, ip administered daily for 5 days; format: functional, organism-based; parameters: dose 7.03 mg/kg
[41] = tested on: LOX; assay: Antitumor activity against human LOX cells xenografted athymic nude mouse at 3.51 mg/kg, ip administered daily for 5 days; format: functional, organism-based; parameters: dose 3.51 mg/kg
[42] = tested on: LOX; assay: Antitumor activity against human LOX cells xenografted athymic nude mouse at 1.76 mg/kg, ip administered daily for 5 days; format: functional, organism-based; parameters: dose 1.76 mg/kg
[43] = Antitumor activity against human LOX cells xenografted athymic nude mouse assessed as increase in life span at 0.26 mg/kg, ip administered daily for 5 days; format: functional; conditions: route intraperitoneal

C=CCCCCC/C=C\[C@H](O)C#CC#C[C@@H](O)C=C
Activity [1]: inactive
Activity [2]: inactive
Activity [3]: inactive
Activity [4]: inactive
Activity [5]: 14 days
Activity [6]: 14.5 days
Activity [7]: 14 days
Activity [8]: 15.5 days
Activity [9]: 15 days
Activity [10]: 14.5 days
Activity [11]: 15 days
Activity [12]: 15 days
Activity [13]: 3%
GI50 [14]: 2100 nM
LC50 [14]: 10000 nM
TGI [14]: 3000 nM
Activity [15]: inactive
Activity [16]: inactive
Activity [17]: inactive
Activity [18]: inactive

C=CCCCCC/C=C\[C@H](O)C#CC#C[C@@H](O)CC [DENDROARBOREOL A]
GI50 [14]: 4600 nM
LC50 [14]: 25000 nM
TGI [14]: 14000 nM

C=C[C@H](O)C#CC#CC/C=C\CCCCCCC [FALCARINOL]
Activity [1]: inactive
Activity [2]: inactive
Activity [19]: inactive
Activity [20]: 2 days
Activity [21]: 3 days
Activity [22]: 3 days
Activity [23]: 4 days
Activity [24]: 4.5 days
Activity [25]: 5.5 days
Activity [26]: 6.5 days
Activity [27]: 22 days
Activity [5]: 22 days
Activity [6]: 20 days
Activity [7]: 19.5 days
Activity [8]: 20 days
Activity [9]: 22.5 days
Activity [10]: 19 days
Activity [28]: 21 days
Activity [29]: 5%
Activity [30]: 5%
Activity [31]: 13%
Activity [32]: 5%
Activity [33]: 13%
Activity [34]: 7%
GI50 [14]: 220 nM
LC50 [14]: 3800 nM
TGI [14]: 760 nM
Activity [35]: Active
Activity [36]: Active
Activity [37]: Active
Activity [38]: Active
Activity [39]: Active
Activity [40]: Active
Activity [41]: Active
Activity [42]: inactive
Activity [15]: inactive
Activity [16]: inactive
Activity [17]: inactive
Activity [18]: inactive

C=C[C@@H](O)C#CC#C[C@@H](O)/C=C\CCCCCCC [FALCARINDIOL]
GI50 [14]: 660 nM
TGI [14]: 2200 nM

C=C[C@H](O)C#CC#C/C=C/C(O)CCCCCCC (stereo not given in full)
GI50 [14]: 440 nM
LC50 [14]: 4700 nM
TGI [14]: 1400 nM

C=CCCCCCC(O)/C=C/C#CC#C[C@@H](O)C=C (stereo not given in full) [DENDROARBOREOL B]
GI50 [14]: 500 nM
LC50 [14]: 7600 nM
TGI [14]: 1900 nM

C=CCCCCC/C=C\CC#CC#C[C@@H](O)C=C
Activity [1]: inactive
Activity [2]: inactive
Activity [19]: inactive
Activity [4]: inactive
Activity [5]: 15 days
Activity [6]: 18 days
Activity [7]: 16 days
Activity [8]: 15 days
Activity [9]: 15 days
Activity [10]: 15 days
Activity [28]: 15 days
Activity [12]: 18 days
Activity [30]: 13%
Activity [31]: 20%
Activity [33]: 47%
Activity [34]: 27%
Activity [13]: 20%
Activity [43]: 20%
GI50 [14]: 400 nM
LC50 [14]: 4800 nM
TGI [14]: 1300 nM
Activity [15]: inactive
Activity [16]: inactive
Activity [17]: inactive
Activity [18]: inactive

Reference: ChEMBL document CHEMBL1158249, “Cytotoxic falcarinol oxylipins from Dendropanax arboreus” (J Nat Prod, 1996)
